Laboratory results: ChEMBL document CHEMBL1909046, “DrugMatrix in vitro pharmacology data”

Tests used:
[1] = molecular target: Mitogen-activated protein kinase 1 (Homo sapiens, UniProt P28482); test: DRUGMATRIX: Protein Serine/Threonine Kinase, ERK2 enzyme inhibition (substrate: Myelin Basic Protein); parameters: species or system Escherichia coli; conditions: Not Active = under 50% inhibition at 10 µM
[2] = molecular target: Sigma non-opioid intracellular receptor 1 (Homo sapiens, UniProt Q99720); test: DRUGMATRIX: Sigma1 radioligand binding (ligand: [3H] Haloperidol); format: cell membranes, Jurkat, Membrane; conditions: Not Active = under 50% inhibition at 10 µM
Vasopressin V1a receptor = Vasopressin V1a receptor (Homo sapiens, UniProt P37288); format: cell membranes, Membrane; conditions: hek293; note: in other assays of this panel Not Active means under 50% inhibition at 10 µM
[3] = molecular target: T1, Neuropeptide Y receptor type 1 (Homo sapiens, UniProt P25929); format: cell membranes, Membrane; conditions: sk-n-mc; note: in other assays of this panel Not Active means under 50% inhibition at 10 µM
T1 sequence (P25929 whole entry): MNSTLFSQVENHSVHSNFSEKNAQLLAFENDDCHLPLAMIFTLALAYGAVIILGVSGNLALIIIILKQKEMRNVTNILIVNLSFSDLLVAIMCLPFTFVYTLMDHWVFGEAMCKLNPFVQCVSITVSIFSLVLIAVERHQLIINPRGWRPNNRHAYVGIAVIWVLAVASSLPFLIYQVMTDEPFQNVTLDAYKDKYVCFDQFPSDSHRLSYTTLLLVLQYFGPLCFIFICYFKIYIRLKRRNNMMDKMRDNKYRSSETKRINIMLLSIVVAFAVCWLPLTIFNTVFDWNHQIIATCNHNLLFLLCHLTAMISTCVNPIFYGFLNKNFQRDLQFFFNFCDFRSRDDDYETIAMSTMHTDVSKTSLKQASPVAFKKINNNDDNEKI

Cytochrome P450 3A4 = Cytochrome P450 3A4 (Homo sapiens, UniProt P08684); conditions: bti-tn-5b1-4; note: in other assays of this panel Not Active means under 50% inhibition at 10 µM
Adenosine receptor A2a = Adenosine receptor A2a (Homo sapiens, UniProt P29274); test: DRUGMATRIX: Adenosine A2A radioligand binding (ligand: […]); format: cell membranes, HEK293, Membrane; conditions: Not Active = under 50% inhibition at 10 µM
Caspase-1 = molecular target: T2, Caspase-1 (Homo sapiens, UniProt P29466); parameters: species or system Escherichia coli;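 note: Caspase-1 enzyme inhibition assay with a peptide substrate; in other assays of this panel Not Active means under 50% inhibition at 10 µM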
T2 sequence (P29466 whole entry): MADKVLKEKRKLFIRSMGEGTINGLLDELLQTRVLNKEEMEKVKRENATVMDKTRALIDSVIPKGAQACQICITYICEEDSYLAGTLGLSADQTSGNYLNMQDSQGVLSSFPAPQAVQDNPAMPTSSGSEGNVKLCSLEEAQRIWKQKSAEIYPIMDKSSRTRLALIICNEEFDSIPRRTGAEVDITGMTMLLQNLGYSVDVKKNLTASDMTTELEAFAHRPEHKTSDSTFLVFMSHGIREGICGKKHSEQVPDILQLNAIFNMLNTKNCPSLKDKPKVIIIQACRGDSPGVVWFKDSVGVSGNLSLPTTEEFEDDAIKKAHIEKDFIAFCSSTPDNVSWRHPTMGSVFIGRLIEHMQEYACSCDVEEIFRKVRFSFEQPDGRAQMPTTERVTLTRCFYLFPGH

Vasopressin V1a receptor, sequence (P37288 whole entry): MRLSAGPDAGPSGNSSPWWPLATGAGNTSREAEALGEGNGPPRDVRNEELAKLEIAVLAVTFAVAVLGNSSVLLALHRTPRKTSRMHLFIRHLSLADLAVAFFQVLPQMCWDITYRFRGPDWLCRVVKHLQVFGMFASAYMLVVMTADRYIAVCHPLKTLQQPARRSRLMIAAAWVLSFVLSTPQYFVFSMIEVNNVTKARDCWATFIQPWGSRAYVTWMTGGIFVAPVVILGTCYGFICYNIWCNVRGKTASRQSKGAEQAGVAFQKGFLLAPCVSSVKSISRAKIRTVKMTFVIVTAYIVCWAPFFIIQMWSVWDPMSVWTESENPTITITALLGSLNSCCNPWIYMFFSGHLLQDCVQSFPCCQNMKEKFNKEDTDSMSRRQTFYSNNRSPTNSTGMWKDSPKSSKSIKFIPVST
Adenosine receptor A2a, sequence (P29274 whole entry): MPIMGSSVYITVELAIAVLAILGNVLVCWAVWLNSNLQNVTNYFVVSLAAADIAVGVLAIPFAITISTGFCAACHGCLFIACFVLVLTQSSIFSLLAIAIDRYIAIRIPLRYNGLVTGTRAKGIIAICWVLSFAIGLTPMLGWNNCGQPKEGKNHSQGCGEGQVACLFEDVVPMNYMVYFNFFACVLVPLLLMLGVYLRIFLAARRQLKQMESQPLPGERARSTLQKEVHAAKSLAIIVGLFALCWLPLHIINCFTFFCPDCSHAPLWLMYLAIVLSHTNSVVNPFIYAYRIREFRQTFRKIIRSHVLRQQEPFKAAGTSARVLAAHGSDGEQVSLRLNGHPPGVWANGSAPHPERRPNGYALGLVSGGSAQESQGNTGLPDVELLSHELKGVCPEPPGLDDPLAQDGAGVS
Mitogen-activated protein kinase 1, sequence (P28482 whole entry): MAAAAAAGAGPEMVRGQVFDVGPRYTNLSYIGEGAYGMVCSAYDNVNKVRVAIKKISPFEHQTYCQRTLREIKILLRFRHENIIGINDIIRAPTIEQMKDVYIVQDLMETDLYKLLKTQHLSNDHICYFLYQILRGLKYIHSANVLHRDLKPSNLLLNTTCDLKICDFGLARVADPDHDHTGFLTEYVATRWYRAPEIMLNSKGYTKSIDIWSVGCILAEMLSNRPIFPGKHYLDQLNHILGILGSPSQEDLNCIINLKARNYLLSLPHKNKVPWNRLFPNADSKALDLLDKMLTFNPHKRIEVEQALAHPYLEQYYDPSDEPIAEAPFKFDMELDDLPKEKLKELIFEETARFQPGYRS
Cytochrome P450 3A4, sequence (P08684 whole entry): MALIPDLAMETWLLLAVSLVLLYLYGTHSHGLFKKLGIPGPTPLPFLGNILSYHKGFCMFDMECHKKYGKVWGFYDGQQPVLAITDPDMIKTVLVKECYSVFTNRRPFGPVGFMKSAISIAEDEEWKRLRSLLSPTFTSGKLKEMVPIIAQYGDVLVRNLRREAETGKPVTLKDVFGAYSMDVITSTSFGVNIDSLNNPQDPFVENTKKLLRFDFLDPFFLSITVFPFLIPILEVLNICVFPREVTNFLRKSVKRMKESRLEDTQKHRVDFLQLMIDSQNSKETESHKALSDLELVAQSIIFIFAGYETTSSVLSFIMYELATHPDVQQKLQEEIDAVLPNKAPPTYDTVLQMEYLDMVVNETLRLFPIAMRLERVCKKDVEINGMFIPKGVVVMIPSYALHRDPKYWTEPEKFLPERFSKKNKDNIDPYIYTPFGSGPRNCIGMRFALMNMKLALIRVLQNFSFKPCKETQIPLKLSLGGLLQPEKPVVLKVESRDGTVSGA
Sigma non-opioid intracellular receptor 1, sequence (Q99720 whole entry): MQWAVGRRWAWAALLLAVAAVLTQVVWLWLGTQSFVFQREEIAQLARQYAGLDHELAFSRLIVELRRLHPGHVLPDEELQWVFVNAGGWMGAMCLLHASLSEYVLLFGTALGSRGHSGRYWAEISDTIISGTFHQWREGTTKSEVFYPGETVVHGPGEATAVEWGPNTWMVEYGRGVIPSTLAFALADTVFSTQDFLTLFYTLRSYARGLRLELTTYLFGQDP

Row | Compound | IC50 [1] | Ki [1] | IC50 ([2]; jurkat) | Ki ([2]; jurkat) | IC50 (Vasopressin V1a receptor) | Ki (Vasopressin V1a receptor) | IC50 [3] | Ki [3] | IC50 (Cytochrome P450 3A4) | Ki (Cytochrome P450 3A4) | IC50 (Adenosine receptor A2a; hek293) | Ki (Adenosine receptor A2a; hek293) | IC50 (Caspase-1) | Ki (Caspase-1) | IC50 (Adenosine receptor A2a; read-out: IC50) [nM] | Ki (Adenosine receptor A2a; read-out: Ki) [nM] | IC50 ([1]; read-out: IC50) [nM] | IC50 ([2]; read-out: IC50) [nM] | Ki ([2]; read-out: Ki) [nM]
1 | STANNOUS FLUORIDE | Not Active | Not Active | Not Active | Not Active | Not Active | Not Active | Not Active | Not Active | Not Active | Not Active | Not Active | Not Active | Not Active | Not Active | – | – | – | – | –
2 | C[C@@H](O)[C@H]1C(=O)N2C(C(=O)O)=C(S[C@@H]3CN[C@H](C(=O)N(C)C)C3)[C@H](C)[C@H]12 [MEROPENEM] | Not Active | – | Not Active | – | Not Active | – | Not Active | – | Not Active | Not Active | Not Active | – | Not Active | – | – | – | – | – | –
3 | COc1ncnc(NS(=O)(=O)c2ccc(N)cc2)c1OC [SULFADOXINE] | Not Active | – | Not Active | – | Not Active | – | Not Active | – | Not Active | Not Active | Not Active | – | Not Active | – | – | – | – | – | –
4 | CCCc1nn(C)c2c(=O)[nH]c(-c3cc(S(=O)(=O)N4CCN(C)CC4)ccc3OCC)nc12 | Not Active | – | Not Active | – | Not Active | – | Not Active | – | Not Active | Not Active | – | – | Not Active | – | 253 | 142 | – | – | –
5 | COc1ccc(/C=C/C(=O)Nc2ccccc2C(=O)O)cc1OC | Not Active | – | Not Active | – | Not Active | – | Not Active | – | Not Active | Not Active | Not Active | – | Not Active | – | – | – | – | – | –
6 | CC1=C(CC(=O)O)c2cc(F)ccc2/C1=C\c1ccc(S(C)(=O)=O)cc1 [EXISULIND] | – | – | Not Active | – | Not Active | – | Not Active | – | Not Active | Not Active | Not Active | – | Not Active | – | – | – | 13800 | – | –
7 | CN1C2CCCC1CC(NC(=O)c1nn(C)c3ccccc13)C2 (stereo not given) [GRANISETRON] | Not Active | – | Not Active | – | Not Active | – | Not Active | – | Not Active | Not Active | Not Active | – | Not Active | – | – | – | – | – | –
8 | Cc1cn([C@H]2C[C@H](N=[N+]=[N-])[C@@H](CO)O2)c(=O)[nH]c1=O [ZIDOVUDINE] | Not Active | – | Not Active | – | Not Active | – | Not Active | – | Not Active | Not Active | Not Active | – | Not Active | – | – | – | – | – | –
9 | OCCN1CCN(CCCN2c3ccccc3Sc3ccc(C(F)(F)F)cc32)CC1 [FLUPHENAZINE] | Not Active | – | – | – | Not Active | – | Not Active | – | – | – | Not Active | – | Not Active | – | – | – | – | 20 | 8.57
10 | CC(C)(C)NC[C@H](O)COc1nsnc1N1CCOCC1 [TIMOLOL] | Not Active | – | Not Active | – | Not Active | – | Not Active | – | – | – | Not Active | – | Not Active | – | – | – | – | – | –
11 | Nc1nc2c(c(=O)[nH]1)N(C=O)C(CNc1ccc(C(=O)N[C@@H](CCC(=O)O)C(=O)O)cc1)CN2 (stereo not given in full) [LEUCOVORIN] | – | – | Not Active | – | Not Active | – | Not Active | – | Not Active | Not Active | Not Active | – | Not Active | – | – | – | – | – | –
12 | O=c1n(CCCN2CCN(c3cccc(Cl)c3)CC2)nc2ccccn12 [TRAZODONE] | Not Active | – | – | – | Not Active | – | Not Active | – | Not Active | Not Active | Not Active | – | Not Active | – | – | – | – | 2200 | 926
13 | COc1cc(C(=O)NS(=O)(=O)c2ccccc2C)ccc1Cc1cn(C)c2ccc(NC(=O)OC3CCCC3)cc12 [ZAFIRLUKAST] | – | – | Not Active | – | Not Active | – | Not Active | – | Not Active | Not Active | Not Active | – | Not Active | – | – | – | 538 | – | –
14 | CCOC(N)=O | Not Active | – | Not Active | – | Not Active | – | Not Active | – | Not Active | Not Active | Not Active | – | Not Active | – | – | – | – | – | –
15 | CN(CCOc1ccc(CC2SC(=O)NC2=O)cc1)c1ccccn1 (stereo not given) [ROSIGLITAZONE] | Not Active | – | Not Active | – | Not Active | – | Not Active | – | – | – | Not Active | – | Not Active | – | – | – | – | – | –
16 | CC(=O)O[C@H]1C[C@@H]2CC[C@@H]3[C@H](CC[C@@]4(C)[C@H]3C[C@H]([N+]3(C)CCCCC3)[C@@H]4OC(C)=O)[C@@]2(C)C[C@@H]1N1CCCCC1.[Br-] [VECURONIUM BROMIDE] | Not Active | – | Not Active | – | Not Active | – | Not Active | – | Not Active | Not Active | Not Active | – | Not Active | – | – | – | – | – | –
17 | Nc1ccc(S(=O)(=O)Nc2ncccn2)cc1 [SULFADIAZINE] | Not Active | – | Not Active | – | Not Active | – | Not Active | – | Not Active | Not Active | Not Active | – | Not Active | – | – | – | – | – | –
18 | CCS(=O)(=O)CCn1c([N+](=O)[O-])cnc1C [TINIDAZOLE] | Not Active | – | Not Active | – | Not Active | – | Not Active | – | – | – | Not Active | – | Not Active | – | – | – | – | – | –
19 | Nc1ccc(S(=O)(=O)Nc2nccs2)cc1 [SULFATHIAZOLE] | Not Active | – | Not Active | – | Not Active | – | Not Active | – | Not Active | Not Active | Not Active | – | Not Active | – | – | – | – | – | –
20 | O=C(O)C(Cl)(Cl)Cl [TRICHLOROACETIC ACID] | Not Active | – | Not Active | – | Not Active | – | Not Active | – | Not Active | Not Active | Not Active | – | Not Active | – | – | – | – | – | –
21 | C=C(C)[C@H]1Cc2c(ccc3c2O[C@@H]2COc4cc(OC)c(OC)cc4[C@@H]2C3=O)O1 [ROTENONE] | Not Active | – | Not Active | – | Not Active | – | Not Active | – | Not Active | Not Active | Not Active | – | Not Active | – | – | – | – | – | –
22 | C#CCN(C)[C@H](C)Cc1ccccc1 [SELEGILINE] | Not Active | – | Not Active | – | Not Active | – | Not Active | – | Not Active | Not Active | Not Active | – | Not Active | – | – | – | – | – | –
23 | CC(C)OC(=O)C(C)(C)Oc1ccc(C(=O)c2ccc(Cl)cc2)cc1 [FENOFIBRATE] | Not Active | – | Not Active | – | Not Active | – | Not Active | – | Not Active | Not Active | Not Active | – | Not Active | – | – | – | – | – | –
24 | CCN(CC)CC#CCOC(=O)C(O)(c1ccccc1)C1CCCCC1 (stereo not given) [OXYBUTYNIN] | Not Active | – | – | – | Not Active | – | Not Active | – | Not Active | Not Active | Not Active | – | Not Active | – | – | – | – | 24.2 | 10.2
25 | COc1cc(N)nc2[nH]c(-c3ccc(F)cc3)c(-c3ccncc3)c12 | Not Active | – | Not Active | – | Not Active | – | Not Active | – | – | – | – | – | Not Active | – | 1030 | 580 | – | – | –
26 | CC[C@@H](CO)NC(=O)[C@@H]1C=C2c3cccc4c3c(cn4C)C[C@H]2N(C)C1 [METHYSERGIDE] | Not Active | – | – | – | Not Active | – | Not Active | – | Not Active | Not Active | Not Active | – | Not Active | – | – | – | – | – | –
27 | CO[C@H]1C[C@@H]2CC[C@@H](C)[C@@](O)(O2)C(=O)C(=O)N2CCCC[C@H]2C(=O)O[C@H]([C@H](C)C[C@@H]2CC[C@@H](O)[C@H](OC)C2)CC(=O)[C@H](C)/C=C(\C)[C@@H](O)[C@@H](OC)C(=O)[C@H](C)C[C@H](C)/C=C/C=C/C=C/1C [SIROLIMUS] | Not Active | – | Not Active | – | Not Active | – | Not Active | – | – | – | Not Active | – | Not Active | – | – | – | – | – | –
28 | O=c1[nH]c2ccccc2n1CCCN1CCC(n2c(=O)[nH]c3cc(Cl)ccc32)CC1 [DOMPERIDONE] | Not Active | – | Not Active | – | Not Active | – | Not Active | – | – | – | Not Active | – | Not Active | – | – | – | – | – | –
29 | COc1ccc(CN2CCNCC2)c(OC)c1OC [TRIMETAZIDINE] | Not Active | – | Not Active | – | Not Active | – | Not Active | – | – | – | Not Active | – | Not Active | – | – | – | – | – | –
